What was measured:
[1] = molecular target: T1, β-Glucocerebrosidase (GCase) (Homo sapiens, UniProt P04062); assay: 4MU-β-Glc fluorescence enzyme assay; type: biochemical
T1 sequence (P04062 40-536): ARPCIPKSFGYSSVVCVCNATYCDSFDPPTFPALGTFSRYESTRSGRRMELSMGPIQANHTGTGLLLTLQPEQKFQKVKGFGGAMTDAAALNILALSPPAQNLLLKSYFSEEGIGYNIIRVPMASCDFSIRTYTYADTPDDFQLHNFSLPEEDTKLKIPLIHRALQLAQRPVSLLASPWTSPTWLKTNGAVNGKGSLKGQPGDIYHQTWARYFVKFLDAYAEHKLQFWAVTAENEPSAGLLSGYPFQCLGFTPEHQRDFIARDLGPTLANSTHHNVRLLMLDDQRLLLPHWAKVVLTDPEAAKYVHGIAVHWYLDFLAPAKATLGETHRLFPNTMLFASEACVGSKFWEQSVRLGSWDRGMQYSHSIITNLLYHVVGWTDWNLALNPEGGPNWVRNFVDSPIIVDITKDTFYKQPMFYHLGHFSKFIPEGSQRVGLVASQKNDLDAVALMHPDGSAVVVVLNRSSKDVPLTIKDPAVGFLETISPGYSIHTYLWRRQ

[2] = molecular target: T1, β-Glucocerebrosidase (GCase); assay: X-ray crystal structure; type: biochemical

IC50 [1] [nM] | IC50 [2] [nM] | SMILES
8 | – | c1cncc(-c2nc(NC3Cc4ccccc4C3)c3ccccc3n2)c1 [compound 3, JZ-4109]
– | 56 | O=C(CCCCCCCCC#Cc1ccc2c(c1)CC(Nc1nc(-c3cccnc3)nc3ccccc13)C2)ON1C(=O)CCC1=O (centres unmarked) [compound 4, JZ-5029]

Reference: paper PMC6098685 (Journal of the American Chemical Society, 2018)
